Laboratory results from PubChem BioAssay (NCI).
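1) Cells in 96-well plates. 2) Compound, 48 h, 5 concentrations. 3) Linear interpolation between surrounding doses. 4) Unreached endpoint = highest concentration. Definition used: TGI = concentration required for complete inhibition of growth.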

Tests used:
Assay in all cases: DTP human tumour cell line panel, 48 h
[1] = tested on: 786-0 renal
[2] = tested on: A498 renal
[3] = tested on: A549 NSCLC
[4] = tested on: ACHN renal
[5] = tested on: CAKI-1 renal
[6] = tested on: CCRF-CEM leukemia
[7] = tested on: COLO 205 colon
[8] = tested on: DU-145 prostate
[9] = tested on: EKVX NSCLC
[10] = tested on: HCC-2998 colon
[11] = tested on: HCT-116 colon
[12] = tested on: HCT-15 colon
[13] = tested on: HL-60(TB) leukemia
[14] = tested on: HOP-62 NSCLC
[15] = tested on: HS 578T breast
[16] = tested on: HT29 colon
[17] = tested on: IGROV1 ovarian
[18] = tested on: K-562 leukemia
[19] = tested on: KM12 colon
[20] = tested on: M14 melanoma
[21] = tested on: MALME-3M melanoma
[22] = tested on: MCF7 breast
[23] = tested on: MDA-MB-231 breast
[24] = tested on: MDA-MB-435
[25] = tested on: MDA-N
[26] = tested on: MOLT-4 leukemia
[27] = tested on: NCI-H226 lung
[28] = tested on: NCI-H23 lung
[29] = tested on: NCI-H460 lung
[30] = tested on: NCI/ADR-RES ovarian
[31] = tested on: OVCAR-8 ovarian
[32] = tested on: PC-3 prostate
[33] = tested on: RPMI-8226 leukemia
[34] = tested on: SF-268 CNS
[35] = tested on: SF-295 CNS
[36] = tested on: SF-539 CNS
[37] = tested on: SK-MEL-2 melanoma
[38] = tested on: SK-MEL-28 melanoma
[39] = tested on: SK-MEL-5 melanoma
[40] = tested on: SK-OV-3 ovarian
[41] = tested on: SN12C renal
[42] = tested on: SNB-19 CNS
[43] = tested on: SNB-75 CNS
[44] = tested on: SR leukemia
[45] = tested on: SW-620 colon
[46] = tested on: T-47D breast
[47] = tested on: TK-10 renal
[48] = tested on: U251 CNS
[49] = tested on: UACC-257 melanoma
[50] = tested on: UACC-62 melanoma
[51] = tested on: UO-31 renal
[52] = tested on: BT-549 breast
[53] = tested on: HOP-92 NSCLC
[54] = tested on: NCI-H522 lung
[55] = tested on: OVCAR-3 ovarian
[56] = tested on: OVCAR-4 ovarian
[57] = tested on: OVCAR-5 ovarian
[58] = tested on: RXF 393 renal

**Q.** How did the TGI [1] turn out when `O=C(/C(=C\C(=O)c1cccs1)c1ccsc1)c1ccc(Br)cc1` was run?
**A.** The TGI was > 100 µM.

**Q.** And the TGI [2]?
**A.** The TGI was > 100 µM.

**Q.** And the TGI [3]?
**A.** Its TGI is > 100 µM.

**Q.** And the TGI [4]?
**A.** Its TGI is > 100 µM.

**Q.** And the TGI [5]?
**A.** Its TGI is > 100 µM.

**Q.** What about the TGI [6] of the same molecule?
**A.** Its TGI is > 100 µM.

**Q.** And the TGI [7]?
**A.** The TGI was > 100 µM.

**Q.** And the TGI [8]?
**A.** Its TGI is > 100 µM.

**Q.** And the TGI [9]?
**A.** The TGI was > 100 µM.

**Q.** What about the TGI [10] of the same molecule?
**A.** Its TGI is > 100 µM.

**Q.** And the TGI [11]?
**A.** Its TGI is > 100 µM.

**Q.** And the TGI [12]?
**A.** The TGI was > 100 µM.

**Q.** What about the TGI [13] of the same molecule?
**A.** Its TGI is > 100 µM.

**Q.** And the TGI [14]?
**A.** Its TGI is > 100 µM.

**Q.** What about the TGI [15] of the same molecule?
**A.** Its TGI is > 100 µM.

**Q.** What about the TGI [16] of the same molecule?
**A.** Its TGI is > 100 µM.

**Q.** What about the TGI [17] of the same molecule?
**A.** The TGI was > 100 µM.

**Q.** What about the TGI [18] of the same molecule?
**A.** The TGI was > 100 µM.

**Q.** And the TGI [19]?
**A.** The TGI was > 100 µM.

**Q.** What about the TGI [20] of the same molecule?
**A.** The TGI was > 100 µM.

**Q.** What about the TGI [21] of the same molecule?
**A.** Its TGI is > 100 µM.

**Q.** What about the TGI [22] of the same molecule?
**A.** Its TGI is > 100 µM.

**Q.** And the TGI [23]?
**A.** Its TGI is > 100 µM.

**Q.** What about the TGI [24] of the same molecule?
**A.** The TGI was > 100 µM.

**Q.** And the TGI [25]?
**A.** The TGI was > 100 µM.

**Q.** What about the TGI [26] of the same molecule?
**A.** The TGI was > 100 µM.

**Q.** What about the TGI [27] of the same molecule?
**A.** Its TGI is > 100 µM.

**Q.** What about the TGI [28] of the same molecule?
**A.** The TGI was > 100 µM.

**Q.** What about the TGI [29] of the same molecule?
**A.** The TGI was > 100 µM.

**Q.** And the TGI [30]?
**A.** Its TGI is > 100 µM.

**Q.** What about the TGI [31] of the same molecule?
**A.** Its TGI is > 100 µM.

**Q.** And the TGI [32]?
**A.** The TGI was > 100 µM.

**Q.** And the TGI [33]?
**A.** Its TGI is > 100 µM.

**Q.** And the TGI [34]?
**A.** Its TGI is > 100 µM.

**Q.** What about the TGI [35] of the same molecule?
**A.** Its TGI is > 100 µM.

**Q.** What about the TGI [36] of the same molecule?
**A.** The TGI was > 100 µM.

**Q.** What about the TGI [37] of the same molecule?
**A.** Its TGI is > 100 µM.

**Q.** And the TGI [38]?
**A.** Its TGI is > 100 µM.

**Q.** What about the TGI [39] of the same molecule?
**A.** The TGI was > 100 µM.

**Q.** What about the TGI [40] of the same molecule?
**A.** The TGI was > 100 µM.

**Q.** What about the TGI [41] of the same molecule?
**A.** The TGI was > 100 µM.

**Q.** And the TGI [42]?
**A.** The TGI was > 100 µM.

**Q.** What about the TGI [43] of the same molecule?
**A.** The TGI was > 100 µM.

**Q.** What about the TGI [44] of the same molecule?
**A.** Its TGI is > 100 µM.

**Q.** What about the TGI [45] of the same molecule?
**A.** Its TGI is > 100 µM.

**Q.** What about the TGI [46] of the same molecule?
**A.** Its TGI is > 100 µM.

**Q.** And the TGI [47]?
**A.** The TGI was > 100 µM.

**Q.** And the TGI [48]?
**A.** Its TGI is > 100 µM.

**Q.** And the TGI [49]?
**A.** The TGI was > 100 µM.

**Q.** And the TGI [50]?
**A.** The TGI was > 100 µM.

**Q.** What about the TGI [51] of the same molecule?
**A.** The TGI was > 100 µM.

**Q.** Which results are given for `CN(C)c1nc(N(C)C)nc(N(C)C23CC4CC(CC(C4)C2)C3)n1`?
**A.** TGI [1]: > 100 µM; TGI [2]: > 100 µM; TGI [3]: > 100 µM; TGI [4]: > 100 µM; TGI [52]: 63.4 µM; TGI [5]: > 100 µM; TGI [6]: 66.6 µM; TGI [7]: 32.7 µM; TGI [8]: > 100 µM; TGI [9]: > 100 µM; TGI [10]: 85.3 µM; TGI [11]: 58.8 µM; TGI [12]: > 100 µM; TGI [14]: > 100 µM; TGI [53]: 55.8 µM; TGI [17]: 58.8 µM; TGI [18]: > 100 µM; TGI [19]: > 100 µM; TGI [20]: > 100 µM; TGI [21]: 95.7 µM; TGI [22]: > 100 µM; TGI [23]: 77.4 µM; TGI [24]: > 100 µM; TGI [25]: 53.7 µM; TGI [27]: > 100 µM; TGI [28]: 34.1 µM; TGI [29]: > 100 µM; TGI [54]: 41 µM; TGI [30]: > 100 µM; TGI [55]: > 100 µM; TGI [56]: > 100 µM; TGI [57]: > 100 µM; TGI [31]: > 100 µM; TGI [32]: 72 µM; TGI [33]: 74.9 µM; TGI [58]: 67.9 µM; TGI [34]: > 100 µM; TGI [35]: > 100 µM; TGI [36]: > 100 µM; TGI [37]: 55.5 µM; TGI [38]: > 100 µM; TGI [40]: > 100 µM; TGI [42]: 96 µM; TGI [43]: 86 µM; TGI [44]: > 100 µM; TGI [45]: > 100 µM; TGI [46]: > 100 µM; TGI [48]: > 100 µM; TGI [49]: > 100 µM; TGI [50]: > 100 µM; TGI [51]: > 100 µM
